One compound from patent US10362781B2, “Methods of controlling the breeding behavior of butterflies” (University of the West Indies, a Regional Institution, …, priority 2010, dated 2019) can be followed below.

Holding throughout (assay type): in vivo, Heraclides andraemon
The subject of assay [1] is H. andraemon. Nature of the assay: Egg laying of Piper amalago var. amalago plant bred H. andraemon given a choice of plants on which to lay (Example 8). Conditions: eggs laid on citrus plant sprayed with the substance, Piper amalago var. amalago-reared butterflies, choice of 4 plants.
Text: H. andraemon larvae were reared on Piper amalago var. amalago plant. When they pupated and were ready to lay eggs, the butterflies were given the choice of plants on which to lay eggs: unsprayed lime plants, unsprayed Piper amalago var. amalago plants, citrus plant sprayed with Piper amalago var. amalago plant oil, and citrus plant sprayed with d-limonene. The egg laying was permitted to continue until the butterflies ceased laying eggs.
The subject of assay [2] is H. andraemon. In words: H. andraemon egg laying on lime plant seedling and P. aduncum, choice of four plants (Example 9). Conditions: P. aduncum cuttings sprayed twice daily with 0.15% d-limonene aerosol; choice of 4 plants. The source says:
Butterflies were induced to lay on host plant Piper aduncum plant sprayed with lime plant oil, or lime plant sprayed with Piper aduncum plant oil. Piper aduncum shoots were collected in Andrew, Jamaica, and 297.35 g of leaves were placed in a Clevenger-type extractor and extracted with boiling water. Once extracted according to the methods described in Example 2, 0.8919 g of a clear oil with a minty-like odor was obtained, a yield of 0.30% by weight.
Four Heraclides andraemon pupae were placed in the cage previously described in Example 1. Three pupae hatched into adults, two males and a female, which were allowed to mate and lay eggs. They were given a choice of four types of plants on which to lay: unsprayed Piper aduncum cuttings; Piper aduncum cuttings sprayed with d-limonene; unsprayed lime seedlings; and lime seedlings sprayed with the Piper aduncum emulsion. These plants, all with young leaves, were placed around the cage.
Cuttings from the Piper aduncum shoots with young leaves were used to attempt to induce butterflies to feed and lay eggs on a Piper aduncum plant treated with lime plant extract. The Piper aduncum cuttings were sprayed twice daily for eight days, once in the morning and once in the afternoon, with a d-limonene aerosol formulation. The d-limonene aerosol formulation was prepared as a hydrocarbon mixture of 72% propane and 28% butane, with 0.15% d-limonene. […]

Assay [3] concerns H. andraemon. In words: Egg laying of lime (citrus) plant bred H. andraemon given a choice of plants on which to lay (Example 7). Conditions: eggs laid on Piper amalago var. amalago plants sprayed with the substance, lime plant-reared butterflies, choice of 4 plants. The method, then: The aerosol mixture for application to citrus plant and Piper amalago var. amalago plant materials was prepared by combining lime plant oil, Piper amalago var. amalago plant oil, d-limonene, or a combination thereof, with an alkane hydrocarbon mixture consisting of 28% butane and 72% propane. The aerosol was filled to a concentration of, e.g., 0.25% by weight of Piper amalago var. amalago plant oil in the hydrocarbon mixture or, e.g., 0.45% by weight of lime plant oil in the hydrocarbon mixture.
H. andraemon larvae were reared on lime plant. When they pupated and were ready to lay eggs, they were given the choice of plants on which to lay eggs: unsprayed lime plants, unsprayed Piper amalago var. amalago plants, Piper amalago var. amalago plants sprayed with lime plant oil, and Piper amalago var. amalago plants sprayed with d-limonene. Egg laying was permitted to continue until the butterflies ceased laying eggs. Nearly 100% of the eggs laid hatched into larvae.
Table 5 summarizes the results of an experiment in which the faithfulness of egg laying on the species of plant on which the butterflies were reared was confirmed. In this experiment, both lime plant oil and d-limonene were sprayed onto Piper amalago var. amalago plant to determine whether the butterflies discriminated between the two.

Take `C=C(C)[C@H]1CC=C(C)CC1` [d-limonene]: the “% of eggs laid” value in the assay on H. andraemon [1] came out at 13.47%; with H. andraemon [2] it was 0%; with H. andraemon [3], 25.00%. The figures for the “No. of eggs laid” value with H. andraemon [1] (total 193 eggs) and with H. andraemon [3] (total 208 eggs) were 26 and 52, respectively. In the assay on H. andraemon [2], the “No. of Eggs after 5 Days” value is 0.
